For the experiment, the target named is T1, TNK1 kinase (Homo sapiens, UniProt Q13470).
T1 sequence (Q13470 1-666): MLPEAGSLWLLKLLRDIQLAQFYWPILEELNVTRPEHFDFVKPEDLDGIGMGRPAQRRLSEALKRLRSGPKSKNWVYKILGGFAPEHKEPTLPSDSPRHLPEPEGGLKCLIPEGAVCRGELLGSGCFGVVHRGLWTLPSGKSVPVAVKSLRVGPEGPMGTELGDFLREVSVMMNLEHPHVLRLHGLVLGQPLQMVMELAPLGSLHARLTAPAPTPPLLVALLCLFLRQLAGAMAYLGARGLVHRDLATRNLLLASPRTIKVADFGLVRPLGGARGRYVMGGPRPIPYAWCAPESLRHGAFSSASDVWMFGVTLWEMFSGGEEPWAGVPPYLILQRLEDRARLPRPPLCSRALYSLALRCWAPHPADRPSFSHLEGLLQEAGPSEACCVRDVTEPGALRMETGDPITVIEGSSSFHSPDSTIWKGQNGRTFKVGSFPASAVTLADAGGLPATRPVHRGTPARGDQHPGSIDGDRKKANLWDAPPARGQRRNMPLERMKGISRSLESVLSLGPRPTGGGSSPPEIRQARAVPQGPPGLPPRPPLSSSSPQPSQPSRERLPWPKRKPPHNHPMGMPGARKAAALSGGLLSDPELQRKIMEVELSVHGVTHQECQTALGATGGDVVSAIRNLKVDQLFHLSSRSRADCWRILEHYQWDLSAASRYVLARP
Briefly: TNK1 kinase activity inhibition assay (ADP-Glo). In kind it is biochemical. As for the experimental part:
Measure compound inhibitory activity against TNK1 kinase using ADP-Glo Assay. 1× kinase reaction buffer was prepared (working concentrations: HEPES 50 mM, MgCl2 10 mM, Brij35 0.01%, EGTA 1 mM, DTT 2 mM). 2× kinase and 4× substrate buffers were prepared with the following working concentrations: For TNK1 kinase: kinase solution at 5 nM; substrate mixture containing ATP at 45 µM and MBP substrate at 0.1 mg/ mL. For ULK2 kinase: kinase solution at 0.15 nM; substrate mixture containing ATP at 6 µM and MBP substrate at 0.1 mg/mL. Compounds were serially diluted in DMSO and shaken on an orbital shaker for 20 minutes. 2× kinase solution was prepared using 1× kinase reaction buffer. 20 nL of compound solution was transferred to a 384-well plate. 2 µL of kinase solution was added to each well of the reaction plate. The plate was sealed with adhesive film, centrifuged at 1000 rpm for 60 seconds, and incubated at 25°C for 10 minutes. 2× ATP&MBP mixture was prepared using 1× kinase reaction buffer. 2 µL of 2× ATP&substrate mixture was added to the reaction plate. The plate was sealed with adhesive film, centrifuged at 1000 rpm for 60 seconds, and incubated at 25°C for 60 minutes. 4 µL of ADP-Glo reagent was transferred to the 384-well reaction plate, centrifuged at 1000 rpm for 1 minute, and incubated at 25°C for 40 minutes. 8 µL of Detection solution was transferred to the 384-well reaction plate, centrifuged at 1000 rpm for 1 minute, and incubated at 25°C for 40 minutes. Relative luminescence units (RLU) were measured using a BMG microplate reader, with signal intensity representing kinase activity level. The inhibition percentage was calculated as follows: % inhibition = 100% - [(Compound RLU - Positive Control RLU)/(Negative Control RLU - Positive Control RLU)] × 100%. The IC50 values (half-maximal inhibitory concentration) of compounds were determined by fitting the data to the following nonlinear regression equation using GraphPad Prism 7.0 software: Y = Bottom + (Top - Bottom)/(1 + 10^((LogIC50 - X) × Hill Slope)), where: X = log(compound concentration), Y = % inhibition. Table1: Inhibitory activity of compounds against ULK (IC50, nM)
(ADP-Glo turns the ADP formed in a reaction into a luminescent signal.)

Broadly, the IC50 is the concentration at which inhibition is half-maximal.

For the molecule `CNC(=O)c1ccccc1Nc1cc(Nc2cc3c(cc2OC)N2CCN(C4CCN(C)CC4)C[C@H]2CO3)ncc1C(F)(F)F` [Compound D2S], the IC50 is < 10 nM.

The values above are taken from patent EP4653444A1, “FUSED TRICYCLIC COMPOUND AS KINASE INHIBITOR” (Hangzhou Innogate Pharma Co., Ltd., priority 2023, dated 2024).
